The term AC50 denotes the concentration giving half of the maximal activity seen. The IC50 is the concentration at which inhibition is half-maximal. As usually defined, the CC50 is the concentration that lowers cell viability or growth by half. As a reminder, the EC50 is the concentration at which the effect is half-maximal.

The source made the active and inactive calls.

Experimental findings from ChEMBL document CHEMBL1201862, “PubChem BioAssay data set” (2004) are described below.

Test [1] addresses T1, DNA repair protein RAD52 homolog (Homo sapiens, UniProt P43351).
T1 sequence (P43351 whole entry): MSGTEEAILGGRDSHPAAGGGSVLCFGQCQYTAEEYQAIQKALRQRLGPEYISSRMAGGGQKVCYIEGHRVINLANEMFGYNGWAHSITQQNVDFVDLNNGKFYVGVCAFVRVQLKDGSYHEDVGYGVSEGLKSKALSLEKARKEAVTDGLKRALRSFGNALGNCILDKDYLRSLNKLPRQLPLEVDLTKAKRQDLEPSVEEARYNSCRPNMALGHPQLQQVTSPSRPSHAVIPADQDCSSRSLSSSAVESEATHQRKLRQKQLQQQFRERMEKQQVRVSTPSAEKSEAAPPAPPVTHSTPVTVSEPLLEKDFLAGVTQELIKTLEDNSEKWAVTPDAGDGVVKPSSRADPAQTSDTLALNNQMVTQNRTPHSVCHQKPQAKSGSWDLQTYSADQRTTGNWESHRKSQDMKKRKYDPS
The format is functional, biochemical.

The target of test [2] is T2, Rac GTPase-activating protein 1 (Homo sapiens, UniProt Q9H0H5).
T2 sequence (Q9H0H5 whole entry): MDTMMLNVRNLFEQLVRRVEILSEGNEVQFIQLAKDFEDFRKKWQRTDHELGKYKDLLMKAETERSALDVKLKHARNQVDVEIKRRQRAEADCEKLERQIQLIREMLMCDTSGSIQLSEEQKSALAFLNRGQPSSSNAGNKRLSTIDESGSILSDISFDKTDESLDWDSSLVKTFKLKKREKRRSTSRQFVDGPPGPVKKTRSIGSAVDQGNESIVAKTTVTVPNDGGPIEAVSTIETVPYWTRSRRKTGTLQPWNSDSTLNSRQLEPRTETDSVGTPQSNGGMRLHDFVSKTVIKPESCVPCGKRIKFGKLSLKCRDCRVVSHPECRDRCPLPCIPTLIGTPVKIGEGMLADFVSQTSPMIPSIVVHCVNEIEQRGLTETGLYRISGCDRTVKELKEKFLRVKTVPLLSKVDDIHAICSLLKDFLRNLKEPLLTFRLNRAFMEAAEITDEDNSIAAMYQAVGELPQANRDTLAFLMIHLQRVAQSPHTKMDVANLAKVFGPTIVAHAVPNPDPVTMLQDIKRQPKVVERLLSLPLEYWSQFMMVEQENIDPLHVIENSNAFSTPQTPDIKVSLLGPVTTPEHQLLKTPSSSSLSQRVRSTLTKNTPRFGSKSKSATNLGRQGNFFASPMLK
The test is described as follows: MgcRacGAP GTPase-activating activity inhibitors, confirmation, biochemical, ADP Hunter fluorescence, primary and confirmatory (AID 624330). Format: functional.

Test [3] in a line: HeLa cell cytotoxicity, dose response, cytotoxicity control for MgcRacGAP inhibitor project (AID 624300). The format is functional.
Test [4] can be described thus: cytotoxicity toward DRD oncogenic fibroblasts, dose response, cell-based, non-viral oncogenic, luminescence (AID 1934). Format: functional. The settings on record: Homo sapiens.
Test [5] deals with BJ. The test is described as follows: cells. The format is functional, cell-based. The settings on record: Homo sapiens.
Test [6] relates to BJ. The test is described as follows: cytotoxicity toward BJ-TERT-LT-ST fibroblasts, dose response, cell-based, RAS-independent, luminescence (AID 1935).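 Note: BJ fibroblasts immortalized with TERT plus LT and ST oncogenes.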 Format: functional. The settings on record: Homo sapiens.
Test [7] concerns BJ. Description: cytotoxicity toward BJ-TERT fibroblasts, dose response, cell-based, RAS-independent, luminescence (AID 1933). The settings on record: Homo sapiens. Format: functional.
The nature of test [8]: C. albicans growth with fluconazole, confirmation, fluorescence, retest (AID 2467). The format is functional, cell-based.
Test [9] has as its target T3, Heat shock factor protein 1 (Mus musculus, UniProt P38532).
T3 sequence (P38532 whole entry): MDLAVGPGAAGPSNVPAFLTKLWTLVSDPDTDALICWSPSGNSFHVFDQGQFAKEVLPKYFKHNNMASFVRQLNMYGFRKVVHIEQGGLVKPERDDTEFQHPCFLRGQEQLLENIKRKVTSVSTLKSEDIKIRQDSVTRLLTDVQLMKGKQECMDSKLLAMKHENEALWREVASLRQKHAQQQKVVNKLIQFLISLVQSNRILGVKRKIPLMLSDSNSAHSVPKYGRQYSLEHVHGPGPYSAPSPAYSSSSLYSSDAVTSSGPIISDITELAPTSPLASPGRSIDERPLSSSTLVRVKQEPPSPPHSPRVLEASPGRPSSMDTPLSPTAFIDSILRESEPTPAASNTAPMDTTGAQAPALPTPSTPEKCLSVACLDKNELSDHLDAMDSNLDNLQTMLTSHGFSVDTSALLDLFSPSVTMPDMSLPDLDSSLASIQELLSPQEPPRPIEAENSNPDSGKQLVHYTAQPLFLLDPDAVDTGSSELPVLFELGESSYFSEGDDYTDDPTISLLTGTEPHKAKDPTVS
Description: HSF1 potentiators in luciferase reporter cells, confirmation, cell-based, NIH3T3, luminescence, dose retest (AID 435004).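 Note: stress induced by proteasome inhibitor MG132 added 30 min after compound; luciferase reporter driven by HSF1 response element in NIH3T3 cells; actives raise luminescence as potentiators of the MG132 stress response.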 Format: functional. For orientation: A reporter such as luciferase makes a cellular process visible.

Test [10] is described as follows: NIH-3T3 fibroblast cytotoxicity, dose response, cytotoxicity control, cell-based, fluorescence, Alamar Blue, secondary assay (AID 2327).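 Note: NIH-3T3 mouse fibroblasts cultured with fluconazole at 8 µg/mL.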 The format is functional. Background: The colour change of resazurin is a common sign of viable cells or microbes.

Consider `O=C(C[n+]1ccc2ccccc2c1)c1ccc2ccc3ccccc3c2c1`, for which the half-maximal activity concentration (AC50) in test [1] was 4.04 µM (active).
For the compound `O=C(c1ccccc1F)N1CCN(Cc2ccccc2F)CC1`, the IC50 in [2] is 182 µM (active). The CC50 in [3] is 100 µM (active).
Regarding `CCn1cc(C(=O)NN)c(=O)c2cc(F)c(N3CCN(C)CC3)cc21`, the AC50 in test [1] is 15.7 µM (active).
Regarding `COc1ccc(N2CCc3c(C)nc4c(OC)cccc4c32)cc1`, the EC50 in test [4] is 2.68 µM (active); in the test with BJ [5], 20 µM (inconclusive); with BJ [6] it was 1.26 µM (inconclusive); with BJ [7], 3.48 µM (inconclusive). Further, in [1], the concentration at half-maximal activity (AC50) is 12.3 µM (active).
For the compound `CN1CCN(CC(=O)Nc2nc(-c3c[nH]c4ccccc34)cs2)CC1`, the AC50 in test [1] was 11.6 µM (active).
Turning to `CCCCn1c(SCC(=O)c2ccc(O)c(O)c2)nc2ccsc2c1=O`, the results for the concentration giving a half-maximal response (EC50) in test [8], in test [9] and in test [10] were > 38 µM (not active), 31.7 µM (active) and 12.9 µM (active), respectively. For the same compound, the IC50 in [2] is 49.7 µM (active). Further, the CC50 in [3] was 100 µM (active).
Regarding `CCOC(=O)c1c(CNc2ccncc2)n(C)c2cc(Br)c(O)cc12`, in test [1], the concentration at half-maximal activity (AC50) is 15.6 µM (active).
As to `Oc1ccc(/C=N/n2c(-c3ccco3)cs/c2=N\c2cccnc2)c(O)c1`, in test [2], the IC50 is 43.3 µM (active). Besides, the CC50 in test [3] is 100 µM (active).
